Patent US9962453B2, “Immunogenic compound” (ALTIMMUNE UK LIMITED, priority 2013, dated 2018)
Marks after values point to notes of the source that are not given here.

Experiment: Particle size measurement (dynamic light scattering) and visual solubility in aqueous solutions; as to particle size, HIST/NaCl: unit not given here; as to particle size, HIST: unit not given here; as to particle size, NaCl: unit not given here; as to particle size, PBS: unit not given here; as to particle size, Water: unit not given here
Details: for particle size, HIST: 2 mg net mass/ml in 28 mM L-Histidine buffer, pH 5.9 to 6.4; for particle size, HIST/NaCl: 2 mg net mass/ml in 0.9% sodium chloride in 28 mM L-histidine, pH 5.9 to 6.3; for particle size, NaCl: 2 mg net mass/ml in 0.9% sodium chloride, pH 3.3 to 4.2; for particle size, PBS: 2 mg net mass/ml in 1× PBS, pH 6.9 to 7.5; for particle size, Water: 2 mg net mass/ml in water, pH 3.1 to 4.1, 20 °C; for behaviour in the particle size assay: water, HIST, NaCl versus HIST/NaCl, PBS

| Substance | particle size, HIST | particle size, HIST/NaCl | particle size, NaCl | particle size, PBS | particle size, Water | behaviour in the particle size assay |
| --- | --- | --- | --- | --- | --- | --- |
| Ac-RRLLPAALALAAPLLRRL-NH2 [Peptide 2, Ac-RRLLPAALALAAPLLRRL-NH2] | 0* | 0* | 0* | 4.52* | 0* | – |
| Ac-LRLLHAPLALPAHLLRLL-NH2 [Peptide 7, Ac-LRLLHAPLALPAHLLRLL-NH2] | 0* | INS. | 0* | INS. | 0* | – |
| Ac-RRLLAAPLALPAALLRRL-NH2 [Peptide 5, Ac-RRLLAAPLALPAALLRRL-NH2] | 0* | 3.3* | 1.6* | 1.35* | 0* | – |
| Ac-LRLLAAHLALHAALLRLL-NH2 [Peptide 10, Ac-LRLLAAHLALHAALLRLL-NH2] | INS. | INS. | INS. | INS. | INS. | – |
| Ac-RRLLKAKLALKAKLLRRL-NH2 [Peptide 18, Ac-RRLLKAKLALKAKLLRRL-NH2] | 0* | 0* | 0* | 0* | 0* | – |
| Ac-RRLLPAHLALHAPLLRRL-NH2 [Peptide 14, Ac-RRLLPAHLALHAPLLRRL-NH2] | 0* | 0* | 0* | 1.5* | 0* | – |
| Ac-RRLLPAPLALPAPLLRRL-NH2 [Peptide 1, Ac-RRLLPAPLALPAPLLRRL-NH2] | 0* | 0.87* | 0* | 2.39* | 0* | – |
| Ac-RRLLHAHLALHAHLLRRL-NH2 [Peptide 16, Ac-RRLLHAHLALHAHLLRRL-NH2] | 0* | 1.83* | 0* | 1.4* | 0* | apparent solubility in water, 28 mM L-Histidine and 0.9% NaCl with the formation of larger particles or insoluble aggregates in 28 mM L-Histidine/NaCl or PBS |
| Ac-RRLLLAPLALPALLLRRL-NH2 [Peptide 4, Ac-RRLLLAPLALPALLLRRL-NH2] | 0* | 0* | 0* | 2.38* | 0* | – |
| Ac-LRLLHAALALAAHLLRLL-NH2 [Peptide 8, Ac-LRLLHAALALAAHLLRLL-NH2] | INS. | INS. | INS. | INS. | INS. | – |
| Ac-RRLLPALLALLAPLLRRL-NH2 [Peptide 3, Ac-RRLLPALLALLAPLLRRL-NH2] | 0* | 0* | 0* | 3.37* | 0* | – |
| Ac-RRLLAAHLALHAALLRRL-NH2 [Peptide 15, Ac-RRLLAAHLALHAALLRRL-NH2] | 0* | 2.66* | 0* | 360.7* | 0* | – |
| Ac-LRLLHALLALLAHLLRLL-NH2 [Peptide 6, Ac-LRLLHALLALLAHLLRLL-NH2] | INS. | INS. | INS. | INS. | INS. | – |
| H-K(Ac)RRLLHAHLALHAHLLRRLK(Ac)-NH2 [Peptide 16′, K(Ac)RRLLHAHLALHAHLLRRLK(Ac)-NH2] | 0* | 2.3* | 0* | 2.9* | 0* | apparent solubility in water, 28 mM L-Histidine and 0.9% NaCl with the formation of larger particles or insoluble aggregates in 28 mM L-Histidine/NaCl or PBS |
| Ac-RRLLHAPLALPAHLLRRL-NH2 [Peptide 12, Ac-RRLLHAPLALPAHLLRRL-NH2] | 0* | 0* | 0* | 1.35* | 0* | – |
| Ac-RRLLHALLALLAHLLRRL-NH2 [Peptide 11, Ac-RRLLHALLALLAHLLRRL-NH2] | 0* | INS. | 0* | INS. | 0* | – |
| Ac-LRLLPAHLALHAPLLRLL-NH2 [Peptide 9, Ac-LRLLPAHLALHAPLLRLL-NH2] | 0* | INS. | 6.02* | INS. | 0* | – |
| Ac-RRLLHAALALAAHLLRRL-NH2 [Peptide 13, Ac-RRLLHAALALAAHLLRRL-NH2] | 0* | 2.7* | 2.2* | 2.3* | 0* | – |
| Ac-RRLLHAKLALKAHLLRRL-NH2 [Peptide 17, Ac-RRLLHAKLALKAHLLRRL-NH2] | 0* | 0* | 0* | 0* | 0* | – |
| Ac-RRLKKAKLKLKAKKLRRL-NH2 [Peptide 19, Ac-RRLKKAKLKLKAKKLRRL-NH2] | 0* | 0* | 0* | 0* | 0* | – |
